Measurements from patent US20220177508A1, “C10-Cyclic Substituted 13-Membered Macrolides and Uses Thereof” (Zikani Therapeutics, Inc., priority 2018, published 2022).
≈ marks a conversion by molar mass, not a printed value. Where two headings read alike, the source gives them in different places.

Legend:
Type in all cases: cell-based
A. baumannii MP-15 = experiment: Broth dilution MIC determination (CLSI), A. baumannii MP-15; details: Acinetobacter baumannii, MP15; strain MP-15, broth dilution; read-out: MIC A. baumanii MP-15
K. pneumoniae MP-546 = experiment: Broth dilution MIC determination (CLSI), K. pneumoniae MP-546; details: Klebsiella pneumoniae, MP546; strain MP-546, broth dilution
P. aeruginosa MP-3 = experiment: Broth dilution MIC determination (CLSI), P. aeruginosa MP-3; details: Pseudomonas aeruginosa, MP3; strain MP-3, broth dilution
S. aureus MP-12 = experiment: Broth dilution MIC determination (CLSI), S. aureus MP-12; details: Staphylococcus aureus, MP12; strain MP-12, broth dilution
E. coli MP-4 = experiment: Broth dilution MIC determination (CLSI), E. coli MP-4; details: Escherichia coli
[1] = MP4, strain MP-4, broth dilution, read-out: MIC E. coli MP-4

Compound	MIC (A. baumannii MP-15)	MIC (K. pneumoniae MP-546)	MIC (P. aeruginosa MP-3)	MIC (S. aureus MP-12)	MIC (E. coli MP-4; [1])	MIC (E. coli MP-4; MP4, read-out: MIC E. coli MP-4)
CO[C@]1(C)C[C@@H](C)CN(C)[C@H](c2ccncc2)COC(=O)C(C)(C)C(=O)[C@H](C)[C@H]1O[C@@H]1O[C@H](C)C[C@H](N(C)C)[C@H]1O [Compound 19, (3R,6R,8R,9R,10R)-9-(((2S,3R,4S,6R)-4-(dimethylamino)-3-hydroxy-6-methyltetrahydro-2H-pyran-2-yl)oxy)-8-methoxy-4,6,8,10,12,12-hexamethyl-3-(pyridin-4-yl)-1-oxa-4-azacyclotridecane-11,13-dione]	> 32 µg/mL	> 32 µg/mL	> 32 µg/mL	> 32 µg/mL	> 32 µg/mL	
CO[C@]1(C)C[C@@H](C)CN(C)[C@@H]([C@@H]2CCCN(C)C2)COC(=O)C(C)(C)C(=O)[C@H](C)[C@H]1O[C@@H]1O[C@H](C)C[C@H](N(C)C)[C@H]1O [Compound 23, (3S,6R,8R,9R,10R)-9-(((2S,3R,4S,6R)-4-(dimethylamino)-3-hydroxy-6-methyltetrahydro-2H-pyran-2-yl)oxy)-8-methoxy-4,6,8,10,12,12-hexamethyl-3-((R)-1-methylpiperidin-3-yl)-1-oxa-4-azacyclotridecane-11,13-dione]	> 32 µg/mL	4 to 32 µg/mL (≈ 6.69 to 53.5 µM)	> 32 µg/mL	> 32 µg/mL	4 to 32 µg/mL (≈ 6.69 to 53.5 µM)	
CO[C@]1(C)C[C@@H](C)CN(C)[C@@H]([C@H]2CCN(C(C)C)C2)COC(=O)C(C)(C)C(=O)[C@H](C)[C@H]1O[C@@H]1O[C@H](C)C[C@H](N(C)C)[C@H]1O [Compound 57, (3S,6R,8R,9R,10R)-9-(((2S,3R,4S,6R)-4-(Dimethylamino)-3-hydroxy-6-methyltetrahydro-2H-pyran-2-yl)oxy)-3-((S)-1-isopropylpyrrolidin-3-yl)-8-methoxy-4,6,8,10,12,12-hexamethyl-1-oxa-4-azacyclotridecane-11,13-dione]	> 32 µg/mL	4 to 32 µg/mL (≈ 6.54 to 52.3 µM)	> 32 µg/mL	4 to 32 µg/mL (≈ 6.54 to 52.3 µM)	< 4 µg/mL	
CO[C@]1(C)C[C@@H](C)CN(C)[C@H]([C@H]2CCN(C(C)C)C2)COC(=O)C(C)(C)C(=O)[C@H](C)[C@H]1O[C@@H]1O[C@H](C)C[C@H](N(C)C)[C@H]1O [Compound 11, (3R,6R,8R,9R,10R)-9-(((2S,3R,4S,6R)-4-(Dimethylamino)-3-hydroxy-6-methyltetrahydro-2H-pyran-2-yl)oxy)-3-((S)-1-isopropylpyrrolidin-3-yl)-8-methoxy-4,6,8,10,12,12-hexamethyl-1-oxa-4-azacyclotridecane-11,13-dione]	> 32 µg/mL	< 4 µg/mL	> 32 µg/mL	4 to 32 µg/mL (≈ 6.54 to 52.3 µM)	< 4 µg/mL	
CO[C@]1(C)C[C@@H](C)CN(C)[C@@H]([C@H]2CNC(=O)C2)COC(=O)C(C)(C)C(=O)[C@H](C)[C@H]1O[C@@H]1O[C@H](C)C[C@H](N(C)C)[C@H]1O [Compound 8, (3S,6R,8R,9R,10R)-9-(((2S,3R,4S,6R)-4-(dimethylamino)-3-hydroxy-6-methyltetrahydro-2H-pyran-2-yl)oxy)-8-methoxy-4,6,8,10,12,12-hexamethyl-3-((R)-5-oxopyrrolidin-3-yl)-1-oxa-4-azacyclotridecane-11,13-dione]	> 32 µg/mL	4 to 32 µg/mL (≈ 6.85 to 54.8 µM)	> 32 µg/mL	> 32 µg/mL	< 4 µg/mL	
CO[C@]1(C)C[C@@H](C)CN(C)[C@H](C2CN(CC=C(C)C)C2)COC(=O)C(C)(C)C(=O)[C@H](C)[C@H]1O[C@@H]1O[C@H](C)C[C@H](N(C)C)[C@H]1O [Compound 155, (3R,6R,8R,9R,10R)-9-(((2S,3R,4S,6R)-4-(dimethylamino)-3-hydroxy-6-methyltetrahydro-2H-pyran-2-yl)oxy)-8-methoxy-4,6,8,10,12,12-hexamethyl-3-(1-(3-methylbut-2-en-1-yl)azetidin-3-yl)-1-oxa-4-azacyclotridecane-11,13-dione]	4 to 32 µg/mL (≈ 6.41 to 51.3 µM)	< 4 µg/mL	> 32 µg/mL	4 to 32 µg/mL (≈ 6.41 to 51.3 µM)		< 4 µg/mL

The next lines start with results.

MIC (A. baumannii MP-15)	MIC (K. pneumoniae MP-546)	MIC (P. aeruginosa MP-3)	MIC (S. aureus MP-12)	MIC (E. coli MP-4; [1])	Compound	MIC (E. coli MP-4; MP4, read-out: MIC E. coli MP-4)
> 32 µg/mL	> 32 µg/mL	> 32 µg/mL	> 32 µg/mL	> 32 µg/mL	CO[C@]1(C)C[C@@H](C)CN(C)[C@H]([C@@H]2CCCN2C)COC(=O)C(C)(C)C(=O)[C@H](C)[C@H]1O[C@@H]1O[C@H](C)C[C@H](N(C)C)[C@H]1O [Compound 106, (3R,6R,8R,9R,10R)-9-(((2S,3R,4S,6R)-4-(dimethylamino)-3-hydroxy-6-methyltetrahydro-2H-pyran-2-yl)oxy)-8-methoxy-4,6,8,10,12,12-hexamethyl-3-((S)-1-methylpyrrolidin-2-yl)-1-oxa-4-azacyclotridecane-11,13-dione]	
4 to 32 µg/mL (≈ 6.27 to 50.2 µM)	< 4 µg/mL	> 32 µg/mL	4 to 32 µg/mL (≈ 6.27 to 50.2 µM)	4 to 32 µg/mL (≈ 6.27 to 50.2 µM)	CO[C@]1(C)C[C@@H](C)CN(C)[C@H](C2CN(C3CCCCC3)C2)COC(=O)C(C)(C)C(=O)[C@H](C)[C@H]1O[C@@H]1O[C@H](C)C[C@H](N(C)C)[C@H]1O [Compound 73, (3R,6R,8R,9R,10R)-3-(1-cyclohexylazetidin-3-yl)-9-(((2S,3R,4S,6R)-4-(dimethylamino)-3-hydroxy-6-methyltetrahydro-2H-pyran-2-yl)oxy)-8-methoxy-4,6,8,10,12,12-hexamethyl-1-oxa-4-azacyclotridecane-11,13-dione]	
4 to 32 µg/mL (≈ 6.19 to 49.5 µM)	< 4 µg/mL	> 32 µg/mL	4 to 32 µg/mL (≈ 6.19 to 49.5 µM)	< 4 µg/mL	CO[C@]1(C)C[C@@H](C)CN(C)[C@H](C2CN(Cc3ccccc3)C2)COC(=O)C(C)(C)C(=O)[C@H](C)[C@H]1O[C@@H]1O[C@H](C)C[C@H](N(C)C)[C@H]1O [Compound 101, (3R,6R,8R,9R,10R)-3-(1-benzylazetidin-3-yl)-9-(((2S,3R,4S,6R)-4-(dimethylamino)-3-hydroxy-6-methyltetrahydro-2H-pyran-2-yl)oxy)-8-methoxy-4,6,8,10,12,12-hexamethyl-1-oxa-4-azacyclotridecane-11,13-dione]	
> 32 µg/mL	> 32 µg/mL	> 32 µg/mL	> 32 µg/mL	4 to 32 µg/mL (≈ 6.25 to 50 µM)	CCCN1C[C@H](C)C[C@@](C)(OC)[C@H](O[C@@H]2O[C@H](C)C[C@H](N(C)C)[C@H]2O)[C@@H](C)C(=O)C(C)(C)C(=O)OC[C@H]1C1CN(CC(C)C)C1 [Compound 105, (3R,6R,8R,9R,10R)-9-(((2S,3R,4S,6R)-4-(dimethylamino)-3-hydroxy-6-methyltetrahydro-2H-pyran-2-yl)oxy)-3-(1-isobutylazetidin-3-yl)-8-methoxy-6,8,10,12,12-pentamethyl-4-propyl-1-oxa-4-azacyclotridecane-11,13-dione]	
> 32 µg/mL	< 4 µg/mL	> 32 µg/mL	> 32 µg/mL	< 4 µg/mL	CO[C@]1(C)C[C@@H](C)CN(C)[C@@H](C2CN(C)C2)COC(=O)C(C)(C)C(=O)[C@H](C)[C@H]1O[C@@H]1O[C@H](C)C[C@H](N(C)C)[C@H]1O [Compound 99, (3S,6R,8R,9R,10R)-9-(((2S,3R,4S,6R)-4-(dimethylamino)-3-hydroxy-6-methyltetrahydro-2H-pyran-2-yl)oxy)-8-methoxy-4,6,8,10,12,12-hexamethyl-3-(1-methylazetidin-3-yl)-1-oxa-4-azacyclotridecane-11,13-dione]	
> 32 µg/mL	> 32 µg/mL	> 32 µg/mL	> 32 µg/mL	> 32 µg/mL	CO[C@]1(C)C[C@@H](C)CN[C@@H](c2ccccc2)COC(=O)[C@H](C)C(=O)[C@H](C)[C@H]1O[C@@H]1OC(C)CC(N(C)C)C1O (stereo partly drawn) [Compound 205]	
> 32 µg/mL	> 32 µg/mL	> 32 µg/mL	4 to 32 µg/mL (≈ 6.01 to 48.1 µM)	4 to 32 µg/mL (≈ 6.01 to 48.1 µM)	CO[C@]1(C)C[C@@H](C)CN(C)[C@H](C2CCN(CC(F)(F)F)CC2)COC(=O)C(C)(C)C(=O)[C@H](C)[C@H]1O[C@@H]1O[C@H](C)C[C@H](N(C)C)[C@H]1O [Compound 92, (3R,6R,8R,9R,10R)-9-(((2S,3R,4S,6R)-4-(dimethylamino)-3-hydroxy-6-methyltetrahydro-2H-pyran-2-yl)oxy)-8-methoxy-4,6,8,10,12,12-hexamethyl-3-(1-(2,2,2-trifluoroethyl)piperidin-4-yl)-1-oxa-4-azacyclotridecane-11,13-dione]	
> 32 µg/mL	< 4 µg/mL	> 32 µg/mL	4 to 32 µg/mL (≈ 6.24 to 49.9 µM)	< 4 µg/mL	CO[C@]1(C)C[C@@H](C)CN(C)[C@@H](C2CN(C(=O)CN(C)C)C2)COC(=O)C(C)(C)C(=O)[C@H](C)[C@H]1O[C@@H]1O[C@H](C)C[C@H](N(C)C)[C@H]1O [Compound 184, (3S,6R,8R,9R,10R)-9-(((2S,3R,4S,6R)-4-(dimethylamino)-3-hydroxy-6-methyltetrahydro-2H-pyran-2-yl)oxy)-3-(1-(dimethylglycyl)azetidin-3-yl)-8-methoxy-4,6,8,10,12,12-hexamethyl-1-oxa-4-azacyclotridecane-11,13-dione]	
> 32 µg/mL	4 to 32 µg/mL (≈ 6.25 to 50 µM)	> 32 µg/mL	> 32 µg/mL	4 to 32 µg/mL (≈ 6.25 to 50 µM)	CO[C@]1(C)C[C@@H](C)CN(C)[C@H](C2CCN(C(C)C)CC2)[C@H](C)OC(=O)C(C)(C)C(=O)[C@H](C)[C@H]1O[C@@H]1O[C@H](C)C[C@H](N(C)C)[C@H]1O [Compound 147, (2S,3R,6R,8R,9R,10R)-9-(((2S,3R,4S,6R)-4-(dimethylamino)-3-hydroxy-6-methyltetrahydro-2H-pyran-2-yl)oxy)-3-(1-isopropylpiperidin-4-yl)-8-methoxy-2,4,6,8,10,12,12-heptamethyl-1-oxa-4-azacyclotridecane-11,13-dione]	
